Experimental data as given in patent publication US8809368B2, “Compounds affecting gap junction activity” (Kansas State University Research Foundation, priority 2006, dated 2014).

Tests used:
Assay type in all cases: cell-based, human
[1] = system: Cx26; test: Western blot of Cx26 in T47D cells; settings: 10, 100, 200 and 500 nM, 24 hours
Protocol: T47D cells were dosed with PQ1 for 24 hours. The Western blot analysis was performed as described in Materials and Methods. Whole cell extract was analyzed for Cx 43, Cx32, and Cx26. Experiment was performed at least three times.
Furthermore, whole cell extract of PQ1 treatment was analyzed for the changes in gap junctional proteins, connexins. Cells were treated with 10, 100, 200, and 500 nM PQ1 for 24 hours. Western blot analysis was performed against Cx26, Cx32, and Cx43 (FIG. 17). […] Anti-tubulin was used as a loading control.
Western Blot Analysis. Cells were grown in serum supplemented RPMI media until they were 90% confluent in 75 cm^2 flasks. Cells were kept in starving media containing phenol red-free DMEM with 5% charcoal dextran stripped serum, overnight. Cells were dosed with 0, 10, 100, 200 and 500 nM of PQ1 for 24 hours. Cells were washed three times with cold PBS and then were harvested using lysis buffer (20 mM Tris pH 7.5, 0.5 mM EDTA, 0.5 mM EGTA, 0.5% Triton X-100) with 1:1000 dilution of protease inhibitors (Sigma-Aldrich, Saint Louis, Mo.). Cell lysate was sonicated and centrifuged at 13,000 rpm for 30 minutes at 4° C. […] Western blots were detected by enhanced chemiluminescence detection reagents (Pierce, Rockford, Ill., USA).

[2] = system: T47D cells; test: Transepithelial electrical resistance (TEER), T47D monolayers; settings: 100, 200 or 500 nM, 48 hours, compared to control
Protocol: T47D cells were treated with 0, 100, 200, and 500 nM PQ1 for 48 hours. TEER assay was performed as described herein. TEER values of each treatment in KΩ/cm^2 were converted to relative percent of control.
Measurement of transepithelial electrical resistance. Cells were grown to 100% confluency on a 12-well transwell (BD Biosciences, San Jose, Calif.) and treated with 0, 100, 200, and 500 nM PQ1 for 48 hours. Transepithelial electrical resistance (TEER) of the T47D monolayers was measured by a high-precision. Resulting voltages were recorded with the aid of a differential amplifier with a high input resistance. Data were corrected for well area (given in Ω·cm^2).

[3] = system: T47D cells; test: MTT assay, cell proliferation and viability, T47D cells; settings: 200 nM, 24 hours
Protocol: (§1) T47D breast cancer cells were treated with various concentrations of PQ1 for 24 hours. MTT assay was performed with adherent cell cultures using a culture medium free of phenol red and of serum. Solution containing MTT was metabolized by the cells (incubation period 3 hours). After solubilization of the MTT crystals with the solubilization solution MTT, the amount of dye was measured spectrophotometrically at 540 nm.
(§2) MTT assay: This assay is done to measure cell proliferation and viability. Yellow MTT (3-(4,5-Dimethylthiazol-2-yl)-2,5-diphenyltetrazolium bromide, a tetrazole) is reduced to purple crystals, formazan in the mitochondria of living cells. A solubilization solution is added to dissolve the insoluble purple formazan product into a colored solution. The absorbance of this colored solution can be measured by a spectrophotometer. T47 D cells (20,000) were grown in 96-well plate and dosed with 10, 100, 200, 500 nM of PQ1 compound in 100 μl of complete media for 24 hours. MTT (20 μl) was added to the cells and purple formazan crystals were observed after 90 minutes. A solubilization solution (0.35 N HCl) was added to dissolve the formazan and the absorbance was measured at 595 nm wavelength with a background wavelength 690 nm by a spectrophotometer.
(§3) The cytotoxicity of PQ1 in MEC and T47D cells using MTT assay was also determined. Cells were treated with 10, 100, 200, and 500 nM PQ1 for 24 hours. MTT assay was performed according to the manufacture's recommendations. A 200 nM PQ1 has 67% cell viability compared to controls (FIG. 16). Treatments of 100 and 200 nM PQ1 have 95% and 103% MEC cell viability compared to control. However, both MEC and T47D cells decrease cell viability to 50% and 65% at 1 μM PQ1, respectively. Thus, 100-200 nM of PQ1 is sufficient to enhance GJIC activity.
(§4) MTT assay. […] After solubilization of the MTT crystals with the solubilization solution MTT, the amount of dye will be measured spectrophotometrically at 540 nm.

[4] = as above; settings: human, T47D breast cancer cells
Protocol: as §1, §2, §3, §4

[5] = system: T47D cells; test: Gap junction activity (GJIC), flow cytometry of dye coupling, T47D cells
Protocol: FIG. 4(A) MDA-MB-453 and (B) T47D cells were treated with low (500 nM) and high (10 μM) concentrations of PQs for 24 hours. Monolayers of acceptor cell population were grown on 25-cm flasks in the presence of Vibrant DiD. Vybrant DiD in acceptor cells is not able to pass through the gap junctions because of its hydrophobic property. Single cell suspensions of donor treated cells were prepared, labeled with 0.05 μg/ml calcein-AM, incubated at 37 C for 5 minutes. Quantification of dye coupling between the donor and acceptor cells was assessed by dual-excitation flow cytometry. […] Cells treated with 10 μM PQ3 have approximately 40-50% decrease in gap junction activity compared control or DMSO.

Structure (SMILES): COc1cc(NCCCN)c2nccc(C)c2c1Oc1cccc(C(F)(F)F)c1.O=C(O)CCC(=O)O [PQ1, 6-Methoxy-8-[(3-aminopropyl)amino]-4-methyl-5-(3-trifluoromethylphenyloxy) quinoline succinic acid]
- Cx26 expression [1]: no effect
- tight junction ion permeability by TEER [2]: no significant effect
- decrease in cell proliferation [3]: 40%
- viability at 24 h, 0.2 µM ([4]; 200 nM, 24 hours, read-out: cell viability compared to controls): 67%
- viability at 24 h, 1 µM ([4]; 1 μM): 65%
- increase in GJIC ([5]; FIG. 4, 24 hours): 20-50%
- effect on gap junction intercellular communication ([5]; Table 1, 500 nM): Increase
